According to ChEMBL document CHEMBL1201862, “PubChem BioAssay data set” (2004):
Active and inactive are the calls of the source.

Legend:
[1] = HepG2 cell cytotoxicity, dose response, cytotoxicity control for Shn3 inhibitor project, CellTiter-Glo, cherry-picked (AID 624134); type: functional, cell-based
[2] = control 3'UTR Renilla luciferase suppression, dose response, counter-screen for Shn3 inhibitor project, cell-based, Clone20-Shn3RL, cherry-picked (AID 624133); type: functional
[3] = Shn3 3'UTR reporter inhibitors, dose response, cell-based, Clone20 osteoblasts, firefly luciferase, cherry-picked (AID 624132); type: functional;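 further: firefly luciferase luminescence from reporter carrying the Shn3 3'UTR in osteoblasts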
[4] = intracellular Trypanosoma cruzi inhibitors in host cells – cell-based, plate reader, cherry-pick samples, set 3, dose response (AID 651818); type: functional;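 further: compounds incubated with infected cells for about four days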
[5] = system: H9c2; assay: cells; type: functional, cell-based; conditions: Rattus norvegicus, H9c2, Myocardium;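 further: confirmatory concentration-response retest of ultra-high-throughput screening hits for modulation of myocardial damage; cell death induced by hydrogen peroxide oxidative stress; compound pretreatment for 60 min then peroxide exposure for 2 h; potency is for protecting the cells against peroxide damage rather than for killing them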
[6] = P. falciparum Dd2 growth inhibitors, dose response, SYBR Green, cherry-picked samples (AID 1159567); type: functional, cell-based
[7] = biological target: T1, Heat shock factor protein 1 (Mus musculus, UniProt P38532); assay: HSF1 potentiators in luciferase reporter cells, confirmation, cell-based, NIH3T3, luminescence, dose retest (AID 435004); type: functional;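 further: stress induced by proteasome inhibitor MG132 added 30 min after compound; luciferase reporter driven by HSF1 response element in NIH3T3 cells; actives raise luminescence as potentiators of the MG132 stress response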
T1 sequence (P38532 whole entry): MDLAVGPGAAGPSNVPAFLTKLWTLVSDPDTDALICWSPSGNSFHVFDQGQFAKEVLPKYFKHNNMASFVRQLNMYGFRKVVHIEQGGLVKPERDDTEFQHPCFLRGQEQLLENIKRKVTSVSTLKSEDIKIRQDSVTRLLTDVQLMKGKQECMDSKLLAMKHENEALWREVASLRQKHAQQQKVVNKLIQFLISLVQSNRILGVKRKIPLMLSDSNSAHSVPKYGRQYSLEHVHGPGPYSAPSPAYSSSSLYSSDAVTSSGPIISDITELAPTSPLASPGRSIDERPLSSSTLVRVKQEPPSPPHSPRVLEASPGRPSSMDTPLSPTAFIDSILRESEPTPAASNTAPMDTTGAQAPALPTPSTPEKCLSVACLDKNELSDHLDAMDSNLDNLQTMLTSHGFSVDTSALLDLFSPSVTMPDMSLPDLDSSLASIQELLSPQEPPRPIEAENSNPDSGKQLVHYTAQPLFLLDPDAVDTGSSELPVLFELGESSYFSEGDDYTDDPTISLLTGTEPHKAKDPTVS

[8] = cytotoxicity toward NIH3T3 fibroblasts, dose response, counter-screen, cell-based, ATP luminescence, mouse fibroblasts (AID 2010); type: functional;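 further: cells exposed to compound for about 90 hours before reading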
[9] = inhibitors of intracellular T. cruzi replication, confirmation, NIH3T3 host cells, beta-gal luminescence (AID 2044); type: functional, cell-based;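 further: intracellular parasites grown in NIH/3T3 mouse fibroblasts as host cells; luminescent beta-galactosidase reporter signal from transgenic T. cruzi replicating inside host cells; inhibitors lower the luminescence signal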
[10] = NIH-3T3 fibroblast cytotoxicity, dose response, cytotoxicity control, cell-based, fluorescence, Alamar Blue, secondary assay (AID 2327); type: functional;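 further: NIH-3T3 mouse fibroblasts cultured with fluconazole at 8 µg/mL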
[11] = C. albicans growth with fluconazole, confirmation, fluorescence, retest (AID 2467); type: functional, cell-based
[12] = biological target: Cytochrome P450 2D6 (Homo sapiens, UniProt P10635);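 further: CYP2D6 member of a cytochrome P450 panel assay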
[13] = biological target: Cytochrome P450 3A4 (Homo sapiens, UniProt P08684);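 further: CYP3A4 tested as one member of a cytochrome P450 panel screen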
[14] = biological target: Cytochrome P450 2C19 (Homo sapiens, UniProt P33261); assay: Cytochrome panel assay with activity outcomes. Panel member name: p450-cyp2c19 Compounds with AC50 equal or less than 10 uM are considered active; type: functional; conditions: read-out: AC50
[15] = biological target: Cytochrome P450 2C9 (Homo sapiens, UniProt P11712)
[16] = biological target: T2, Cytochrome P450 1A2 (Homo sapiens, UniProt P05177);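 further: PubChem cytochrome P450 panel assay, CYP1A2 panel member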
T2 sequence (P05177 whole entry): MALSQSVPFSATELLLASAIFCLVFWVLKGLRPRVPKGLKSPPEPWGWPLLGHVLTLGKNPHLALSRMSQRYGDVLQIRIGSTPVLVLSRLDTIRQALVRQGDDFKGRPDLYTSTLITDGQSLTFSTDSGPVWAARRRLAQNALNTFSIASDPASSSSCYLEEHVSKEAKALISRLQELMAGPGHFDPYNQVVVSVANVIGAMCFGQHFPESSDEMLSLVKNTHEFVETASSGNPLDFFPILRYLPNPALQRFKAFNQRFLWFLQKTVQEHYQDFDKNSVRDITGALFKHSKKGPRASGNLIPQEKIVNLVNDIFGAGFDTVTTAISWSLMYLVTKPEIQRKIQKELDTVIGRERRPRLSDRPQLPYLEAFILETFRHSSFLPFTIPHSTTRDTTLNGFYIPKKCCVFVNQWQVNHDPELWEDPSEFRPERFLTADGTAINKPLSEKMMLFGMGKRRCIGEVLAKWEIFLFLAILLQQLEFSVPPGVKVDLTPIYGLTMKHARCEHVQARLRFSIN

[17] = biological target: Nonstructural protein 1 (Influenza A virus, UniProt Q194T2); type: functional, Influenza A virus (A/California/07/2009(H1N1))
[18] = Luminescence Cell-Based Dose Response HTS to Identify Inhibitors of 5'UTR Stem-Loop Driven Prion Protein mRNA Translation in H4 Neuroglioblastoma Cells. [Related pubchem assays: 1827 (Project Summary), 1813 (Primary HTS)]; type: functional
[19] = system: Streptococcus sp. 'group A'; assay: growth inhibition of control SK(-) GAS strain, dose response, counter-screen for streptokinase expression inhibitor project, luminescence, kanamycin, BacTiterGlo, confirmation (AID 1900); type: functional, organism-based
[20] = biological target: T3, Streptokinase A (Streptococcus pyogenes serotype M1, UniProt P10520); assay: S. pyogenes streptokinase expression inhibitors, potency, dose response, plasminogen activation absorbance, OD405 (AID 1914); type: functional, Streptococcus pyogenes M1 GAS;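 further: secreted streptokinase activity via plasminogen activation per viability signal from cell pellet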
T3 sequence (P10520 whole entry): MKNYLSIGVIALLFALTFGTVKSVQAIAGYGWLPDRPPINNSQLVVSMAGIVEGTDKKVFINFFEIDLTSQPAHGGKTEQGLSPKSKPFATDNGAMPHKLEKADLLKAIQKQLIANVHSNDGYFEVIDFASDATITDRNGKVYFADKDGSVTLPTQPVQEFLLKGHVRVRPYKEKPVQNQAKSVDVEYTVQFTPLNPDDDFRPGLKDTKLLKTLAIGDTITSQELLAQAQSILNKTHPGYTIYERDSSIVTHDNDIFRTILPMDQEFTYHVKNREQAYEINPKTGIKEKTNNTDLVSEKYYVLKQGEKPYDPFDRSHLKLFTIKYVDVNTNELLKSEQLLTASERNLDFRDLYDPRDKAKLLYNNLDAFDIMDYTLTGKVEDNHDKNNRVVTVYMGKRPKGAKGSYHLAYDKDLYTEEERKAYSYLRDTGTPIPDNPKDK

[21] = system: Streptococcus; assay: Group A Streptococcus viability loss, dose response, counter-screen for streptokinase expression inhibitor project, luminescence, BacTiterGlo (AID 1915); type: functional, organism-based;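 further: potency for reduction of bacterial viability or growth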
[22] = inhibitors of firefly luciferase expression or activity, dose response, H4 neuroglioma cells, luminescence (AID 1990); type: functional, cell-based
[23] = system: INS1; assay: beta cell apoptosis inhibitors, cytokine rescue, dose response, luminescence, retest (AID 449756); type: functional, cell-based; conditions: Rattus norvegicus;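 further: cell death triggered by IL-1 beta plus TNF-alpha plus IFN-gamma mixture; protective hits raise ATP signal compared with cytokine alone wells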
[24] = inhibitors of SNCA 5'UTR-driven reporter translation, confirmation, H4 neuroglioma cells, luminescence (AID 1988); type: functional, cell-based
[25] = system: BJ; assay: cytotoxicity toward BJ-TERT fibroblasts, dose response, cell-based, RAS-independent, luminescence (AID 1933); type: functional; conditions: Homo sapiens
[26] = system: BJ; assay: cytotoxicity toward BJ-TERT-LT-ST fibroblasts, dose response, cell-based, RAS-independent, luminescence (AID 1935); type: functional; conditions: Homo sapiens;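 further: BJ fibroblasts immortalized with TERT plus LT and ST oncogenes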
[27] = cytotoxicity toward DRD oncogenic fibroblasts, dose response, cell-based, non-viral oncogenic, luminescence (AID 1934); type: functional; conditions: Homo sapiens
[28] = system: BJ; assay: cells; type: functional, cell-based; conditions: Homo sapiens

Cytochrome P450 2C19, sequence (P33261 whole entry): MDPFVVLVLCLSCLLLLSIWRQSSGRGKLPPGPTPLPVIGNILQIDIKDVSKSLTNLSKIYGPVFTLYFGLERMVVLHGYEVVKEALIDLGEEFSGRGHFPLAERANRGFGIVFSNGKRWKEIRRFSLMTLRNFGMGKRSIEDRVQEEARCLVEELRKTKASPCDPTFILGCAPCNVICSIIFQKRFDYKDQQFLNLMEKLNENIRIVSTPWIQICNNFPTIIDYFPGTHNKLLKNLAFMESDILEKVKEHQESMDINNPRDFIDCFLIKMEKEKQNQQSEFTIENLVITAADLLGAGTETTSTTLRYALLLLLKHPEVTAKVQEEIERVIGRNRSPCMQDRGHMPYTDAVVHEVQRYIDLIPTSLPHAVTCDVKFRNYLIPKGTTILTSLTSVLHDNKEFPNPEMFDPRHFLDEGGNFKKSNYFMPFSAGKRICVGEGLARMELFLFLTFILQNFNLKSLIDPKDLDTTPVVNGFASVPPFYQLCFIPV
Cytochrome P450 2C9, sequence (P11712 whole entry): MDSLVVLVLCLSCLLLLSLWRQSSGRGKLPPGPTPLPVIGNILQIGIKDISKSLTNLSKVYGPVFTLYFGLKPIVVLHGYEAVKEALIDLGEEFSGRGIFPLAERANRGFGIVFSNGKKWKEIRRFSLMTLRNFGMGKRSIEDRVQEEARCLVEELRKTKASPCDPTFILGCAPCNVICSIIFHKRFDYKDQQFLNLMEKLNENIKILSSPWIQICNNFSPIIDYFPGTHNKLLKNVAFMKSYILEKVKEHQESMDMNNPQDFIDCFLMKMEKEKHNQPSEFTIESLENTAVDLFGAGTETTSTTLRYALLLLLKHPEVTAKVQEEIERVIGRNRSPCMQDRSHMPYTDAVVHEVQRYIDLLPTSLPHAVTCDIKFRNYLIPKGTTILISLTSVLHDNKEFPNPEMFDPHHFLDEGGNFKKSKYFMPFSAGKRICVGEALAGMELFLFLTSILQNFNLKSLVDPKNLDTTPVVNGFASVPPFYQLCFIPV
Nonstructural protein 1, sequence (Q194T2 whole entry): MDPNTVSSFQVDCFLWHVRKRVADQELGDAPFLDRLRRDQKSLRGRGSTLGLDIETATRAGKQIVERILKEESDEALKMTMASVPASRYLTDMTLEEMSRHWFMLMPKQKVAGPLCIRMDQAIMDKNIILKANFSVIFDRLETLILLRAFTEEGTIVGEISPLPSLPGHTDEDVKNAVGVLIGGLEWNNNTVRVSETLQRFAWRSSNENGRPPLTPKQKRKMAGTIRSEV
Cytochrome P450 3A4, sequence (P08684 whole entry): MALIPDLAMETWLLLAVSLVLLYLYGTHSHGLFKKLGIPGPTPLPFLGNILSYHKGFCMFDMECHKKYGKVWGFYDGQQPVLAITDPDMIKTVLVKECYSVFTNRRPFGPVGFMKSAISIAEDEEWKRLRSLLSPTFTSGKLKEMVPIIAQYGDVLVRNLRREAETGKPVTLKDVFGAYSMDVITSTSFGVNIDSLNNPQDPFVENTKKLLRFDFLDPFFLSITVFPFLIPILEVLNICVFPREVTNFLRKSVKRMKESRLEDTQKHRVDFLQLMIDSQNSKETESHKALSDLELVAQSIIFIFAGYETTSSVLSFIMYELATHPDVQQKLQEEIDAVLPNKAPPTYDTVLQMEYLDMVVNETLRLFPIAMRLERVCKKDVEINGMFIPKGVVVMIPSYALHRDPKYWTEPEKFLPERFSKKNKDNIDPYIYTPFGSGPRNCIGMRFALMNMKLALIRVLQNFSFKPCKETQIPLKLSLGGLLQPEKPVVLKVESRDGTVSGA
Cytochrome P450 2D6, sequence (P10635 whole entry): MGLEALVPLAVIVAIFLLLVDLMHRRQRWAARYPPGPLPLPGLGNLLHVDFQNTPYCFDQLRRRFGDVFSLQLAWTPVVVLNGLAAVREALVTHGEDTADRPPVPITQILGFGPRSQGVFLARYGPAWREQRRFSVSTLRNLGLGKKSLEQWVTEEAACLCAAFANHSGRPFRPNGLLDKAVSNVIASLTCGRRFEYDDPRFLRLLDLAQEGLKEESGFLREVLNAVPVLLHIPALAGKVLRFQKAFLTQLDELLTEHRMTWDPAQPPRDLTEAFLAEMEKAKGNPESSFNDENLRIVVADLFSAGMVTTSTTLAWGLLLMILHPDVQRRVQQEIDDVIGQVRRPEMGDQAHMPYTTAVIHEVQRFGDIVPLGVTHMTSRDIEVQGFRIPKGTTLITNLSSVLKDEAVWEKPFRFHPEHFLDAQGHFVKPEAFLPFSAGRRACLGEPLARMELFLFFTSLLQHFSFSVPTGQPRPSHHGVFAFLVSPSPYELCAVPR

Structure (SMILES): CC(C)C[C@H]1CNC(=S)N1CC1CCN(CC2CCC(C(C)(C)C)CC2)CC1 (some centres not stated)
- AC50 [1]: 21.5 µM (active)
- AC50 [2]: 4.48 µM (active)
- AC50 [3]: 4.05 µM (active)

Structure (SMILES): C[C@H](CO)N1C[C@H](C)[C@H](CN(C)Cc2ccc(Cl)c(Cl)c2)Oc2c(NC(=O)CCCCCC(=O)Nc3ccccc3N)cccc2C1=O
- AC50 [4]: 1.65 µM (active)

Structure (SMILES): CCOC(=O)c1cc2c(=O)n3cccc(C)c3nc2n(CCCOC)/c1=N\C(=O)c1cccnc1
- IC50 [5]: > 79 µM (inactive)

Structure (SMILES): C[C@H](CO)N1C[C@H](C)[C@@H](CN(C)Cc2ccc(Cl)c(Cl)c2)Oc2c(NC(=O)c3ccncc3)cccc2C1=O
- AC50 [4]: 0.08 µM (active)

Structure (SMILES): O=C(c1ccc(F)cc1)N1CC(=O)N2[C@H](CO)[C@@H](c3ccc(C#Cc4ccc(F)cc4)cc3)[C@@H]2C1
- AC50 [6]: 5.03 µM (active)

Structure (SMILES): O=C1CCCN1CCCNc1c([N+](=O)[O-])nn(-c2ccc(Cl)cc2)[n+]1[O-]
- EC50 [7]: 26.5 µM (active)
- EC50 [8]: > 60 µM (inconclusive)
- EC50 [9]: 0.562 µM (active)
- EC50 [10]: 17 µM (active)
- EC50 [11]: > 38 µM (not active)

Structure (SMILES): CN(C)C1=NC[C@H](Cc2ccccc2)N1CCCCc1ccccc1
- AC50 [1]: 58.9 µM (active)
- AC50 [2]: 4.5 µM (active)
- AC50 [3]: 8.01 µM (active)

Structure (SMILES): O=C1Nc2cnc(Cl)nc2Nc2ccccc21
- IC50 [5]: 18.7 µM (active)

Structure (SMILES): Nc1nc(Br)c2c(F)cccc2c1-c1ccc(Cl)cc1
- EC50 [7]: > 260 µM (inactive)
- AC50 [12]: 3.16 µM (inconclusive)

Structure (SMILES): c1ccc(CN2C[C@@H]3N[C@H](C2)[C@H]3c2ccc(-c3ccncc3)cc2)cc1
- AC50 [6]: 9.92 µM (active)

Structure (SMILES): COc1ccc(NC(=O)N(C)C[C@H]2Oc3ccc(NC(=O)Nc4ccc(C(F)(F)F)cc4)cc3CC(=O)N([C@H](C)CO)C[C@@H]2C)cc1
- AC50 [6]: 3.41 µM (active)

Structure (SMILES): Cc1nnc2ccc(-c3cccc(NC(=O)c4ccc(Cl)nc4)c3)nn12
- IC50 [5]: > 79 µM (inactive)

Structure (SMILES): CCOc1ccc(C(=O)Nc2cccc(-c3nc4cccnc4o3)c2)cc1Cl
- AC50 [13]: 6.31 µM (inconclusive)
- AC50 [14]: 14.1 µM (inconclusive)
- AC50 [15]: 14.1 µM (inconclusive)
- AC50 [16]: 5.01 µM (inconclusive)
- IC50 [5]: > 79 µM (inactive)

Structure (SMILES): C/C=C/c1ccc2c(c1)[C@@H]1[C@@H](CCN1C(=O)C1CCCC1)[C@H](CO)N2
- AC50 [6]: 12.7 µM (active)

Structure (SMILES): S=C(Nc1ccccc1)Nc1ccc(Cl)cn1
- EC50 [7]: > 260 µM (inactive)

Structure (SMILES): CCOC(=O)c1c(NC(=O)C2c3ccccc3Oc3ccccc32)sc(C(C)=O)c1C
- AC50 [1]: 61.5 µM (active)
- AC50 [2]: 13.6 µM (active)
- AC50 [3]: 4.67 µM (active)

Structure (SMILES): CCCn1c(SCC(=O)c2cc(OC)ccc2OC)nnc1C(C)C
- EC50 [7]: 62.4 µM (active)

Structure (SMILES): Clc1ccc(SCc2csc(N3CCOCC3)n2)cc1
- EC50 [7]: 51.8 µM (active)

Structure (SMILES): Cc1cc(C(=O)COc2ccccc2C(N)=O)c(C)n1C
- IC50 [5]: > 79 µM (inactive)

Structure (SMILES): CC(=O)NCCNc1nc2c(-c3ccccc3)nnn2c2ccccc12
- IC50 [5]: > 79 µM (inactive)

Structure (SMILES): Fc1ccc(NC(S)=Nc2cc(Cl)ccc2Cl)cc1
- EC50 [7]: > 260 µM (inactive)

Structure (SMILES): Oc1cc(-c2cccnc2)cc2cccnc12
- IC50 [17]: 15.6 µM (active)
- AC50 [1]: 10.9 µM (active)
- AC50 [2]: 4.04 µM (active)
- AC50 [3]: 9.27 µM (active)

Structure (SMILES): COc1cc(C)c(C(=O)CC(=O)c2c(C)cc(OC)cc2C)c(C)c1
- EC50 [8]: 6.5 µM (active)
- EC50 [18]: 73.2 µM (active)
- EC50 [19]: 3.96 µM (active)
- AC50 [1]: > 70 µM (inactive)
- EC50 [20]: 68.7 µM (active)
- EC50 [21]: > 150 µM (not active)
- EC50 [22]: 10.7 µM (active)
- AC50 [23]: 8.81 µM (active)
- EC50 [9]: 2.67 µM (active)
- AC50 [2]: 21.8 µM (active)
- AC50 [3]: 7.4 µM (active)
- EC50 [24]: > 120 µM (not active)

Structure (SMILES): COc1ccc2c3c([nH]c2c1)[C@H](CO)N(C(=O)Nc1ccc(F)cc1)CC31CCN(C(=O)c2ccccn2)CC1
- AC50 [6]: 12.4 µM (active)

Structure (SMILES): COc1cc(NC(=O)Cc2cccs2)ccc1-n1cnnn1
- EC50 [7]: > 260 µM (inactive)

Structure (SMILES): CCC1=Nc2cc(C(=O)O)ccc2Sc2ccc(Cl)cc21
- EC50 [25]: > 150 µM (not active)
- EC50 [26]: > 150 µM (not active)
- EC50 [27]: > 150 µM (not active)
- EC50 [28]: > 150 µM (not active)

Structure (SMILES): CCCN1C[C@@H](C)[C@H](OC)CN(C)C(=O)c2ccc(NC(=O)c3ccc4c(c3)OCO4)cc2OC[C@H]1C
- AC50 [6]: 3.45 µM (active)

Structure (SMILES): Cc1ccc(NC(=O)CN(C)C(=O)COc2cc(F)ccc2[N+](=O)[O-])cc1
- AC50 [1]: > 70 µM (inactive)
- AC50 [2]: 16.2 µM (active)

Structure (SMILES): O=C(NCC(=O)N(Cc1cccs1)C(C(=O)NC1CCCCC1)c1ccco1)c1ccco1 (configuration not stated)
- IC50 [5]: 7.48 µM (active)

Structure (SMILES): CS/C(=N\S(=O)(=O)c1ccccc1)c1ccccc1
- IC50 [5]: > 79 µM (inactive)

Structure (SMILES): Cc1cc(C)c2nc3sc(C(=O)N4CCOCC4)c(N)c3cc2c1
- EC50 [25]: 2.52 µM (active)
- EC50 [26]: 26 µM (active)
- EC50 [27]: 2.62 µM (active)
- EC50 [28]: 2.64 µM (active)
